In patent US6242425A, “Quinolinone glycoside, production process, and anti-allergic agent” (Dainippon Ink and Chemicals, Inc., priority 1998, dated 2001):

What was measured:
[1] = system: delayed type asthmatic response; assay: Effect on experimental delayed type asthma model in guinea pigs (airway resistance); format: in vivo, guinea pig (male hartley guinea pigs); details: AUC of airway resistance change 4-8 hours after challenge
Source text: (§1) Effect on experimental immediate and delayed type asthma model in guinea pigs
(§2) The asthma is typical allergic disease and we carried out this pharmacological test by experimental asthmatic model in guinea pigs in order to confirm that the compounds of the present invention, compound 14, 16, 20, 26 and 32, suppress immediate and delayed type asthmatic response. In the following, the method of the pharmacological test will be explained.
(§3) Method: Male hartley guinea pigs were sensitized by exposured aerosolized ovalbumine (OVA) (1% in saline) for 10 minutes per a day at eight times. The aerosol was generated by an ultrasonic nebulizer (NE-U12, Omron inc.). One week after final sensitization, the animals were challenged with inhalation of OVA (2% in saline) for 5 minutes. The animals were pretreated with metyrapone (10 mg/kg, i.v.) at 1 and 4 hours before the challenge, and pyrilamine (10 mg/kg, i.p.) at 30 minutes before the challenge. airway resistance in the conscious animals were measured for 1 minute with PULMOS-1 (made in Medical Interface Project Station Inc.) at 1 minute, 2, 4, 5, 6, 7, 8 and 23 to 24 hours after the challenge. Compound 14, 16, 20, 26 and 32 (test compound) suspended in 0.5% methylcellulose (MC) solution were given i.v. at doses of 0.2 and 0.5 mg/kg 1 hour before and 3 hours after the challenge. As a positive control group, Prednisolone was given orally at a dose of 10 mg/kg 2 hours and 16 hours before the challenge. As vehicle control group, only 0.5% MC solution was given orally.
(§4) The evaluation of the effect of the compounds on immediate and delayed type asthmatic response was undertaken with percentage of change in airway resistance 1 minute after the challenge and the area under the response curve for percentage of change in airway resistance between 4 and 8 hours after the challenge, respectively.
(§5) The inhibition (%) of the compounds for immediate and delayed type asthmatic response was calculated according to equation 2 and the result was shown in table 2. Each experimental group consisted of 8 guinea pigs.
(§6) Inhibition (%)=(A-B)/A×100
(§7) A: percentage of change in airway resistance in vehicle control group
(§8) B: percentage of change in airway resistance in test compound group or positive control group

[2] = system: immediate type asthmatic response; assay: Effect on experimental immediate type asthma model in guinea pigs (airway resistance); format: in vivo, guinea pig (male hartley guinea pigs); details: airway resistance 1 minute after challenge
Source text: as §1, §2, §3, §4, §5, §6, §7, §8

[3] = system: homologous passive cutaneous anaphylaxis (PCA) reaction in rats; assay: Effect on homologous passive cutaneous anaphylaxis (PCA) reaction in rats; format: in vivo, rat (male wistar rats); details: vs vehicle control
Procedure: Effect on homologous passive cutaneous anaphylaxis (PCA) reaction in rats
This experimental animal model is caused by immediate type allergic reaction, namely, antigen-antibody reaction. In the following, the method of this pharmacological test will be explained.
Method: Male wistar rats (9 weeks old) were intradermally administered 0.05 ml of anti-serum against dinitrophenylated ascaris (DNP-As) into two sites on the shaved dorsal skin. 48 hours later, glycosyloxyquinolinone derivatives (test compounds) suspended in 0.5% methylcellulose (MC) were given i.v. at a dose of 0.5 mg/kg to the animals. 1 hour after administration of Test compounds, the animals were induced anaphylaxis by injection of saline (1 ml) dissolving 1 mg of trinitrophenylated ascaris (TNP-As) and 5 mg of Evans Blue into the tail vein of the animals. 30 minutes after induction of anaphylaxis, animals were anesthetized by ether and killed by bleeding, and were flayed dorsal skin. The leakage of dye was assessed by measuring the diameter (mean of shortest and longest diameter) of the blue spot on the inside surface of dorsal skin. As vehicle control group, only 0.5% MC solution was administered orally, and as positive control group, Tranilast suspended in 0.5% MC were administered orally at a dose of 100 mg/kg to the animals with the same method as the test compounds groups. Each experimental group consisted of 5 rats.
In the conditions of this experiment, it was considered that the compound, which inhibited PCA reaction by over forty (40) percent against that in vehicle control group, was evidently effective for immediate type allergy.
as §6
A: leakage of dye in vehicle control group
B: leakage of dye in test compound group or positive control group

[4] = positive control, 10 mg/kg orally, 2 and 16 hours before challenge
[5] = 0.5 mg/kg i.v., 1 hour before challenge
[6] = 0.2 mg/kg i.v., 1 hour before and 3 hours after challenge
[7] = 0.5 mg/kg i.v., 1 hour before and 3 hours after challenge

Row | Compound | inhibition (%) of PCA reaction [3, 5] [%] | delayed type asthma inhibition (%) [1, 6] [%] | delayed type asthma inhibition (%) [1, 7] [%] | immediate type asthma inhibition % [2, 6] [%] | immediate type asthma inhibition % [2, 7] [%] | further results
1 | C[C@]12C=CC(=O)C=C1CC[C@@H]1[C@@H]2[C@@H](O)C[C@@]2(C)[C@H]1CC[C@]2(O)C(=O)CO [Prednisolone, reference compound] |  |  |  |  |  | delayed type asthma inhibition (%) [1, 4]: 69%; immediate type asthma inhibition % [2, 4]: 27%
2 | CCCCCCCCOc1c(O[C@H]2O[C@H](CO)[C@@H](O)[C@H](O)[C@@H]2O)c2ccc(NC(=O)/C=C/c3cc(OC)c(O[C@H]4O[C@H](CO)[C@@H](O)[C@H](O)[C@@H]4O)c(OC)c3)cc2n(C)c1=O [Compound 32, 7-[3,5-dimethoxy-4-(α-D-mannopyranosyloxy)cinnamoyl]amino-3-octyloxy-4-(α-D-mannopyranosyloxy)-1-methyl-2(1H)-quinolinone] | 45 | 49 | 57 | 26 | 34 | 
3 | CCCCCCCCOc1c(O)c2ccc(NC(=O)/C=C/c3cc(OC)c(O[C@H]4O[C@H](CO)[C@@H](O)[C@H](O)[C@@H]4O)c(OC)c3)cc2n(C)c1=O [Compound 33, 7-[3,5-dimethoxy-4-(α-D-mannopyranosyloxy)cinnamoyl]amino-3-octyloxy-4-hydroxy-1-methyl-2(1H)-quinolinone] | 40 |  |  |  |  | 
4 | CCCCCCCCOc1c(O)c2ccc(NC(=O)/C=C/c3cc(OC)c(O[C@@H]4O[C@H](CO)[C@@H](O)[C@H](O)[C@H]4O)c(OC)c3)cc2n(C)c1=O [Compound 21, 7-[3,5-dimethoxy-4-(β-D-glucopyranosyloxy)cinnamoyl]amino-3-octyloxy-4-hydroxy-1-methyl-2(1H)-quinolinone] | 46 |  |  |  |  | 
5 | CCCCCCCCOc1c(O[C@@H]2O[C@H](CO)[C@H](O)[C@H](O)[C@H]2O)c2ccc(NC(=O)/C=C/c3cc(OC)c(O)c(OC)c3)cc2n(C)c1=O [Compound 28, 7-(3,5-dimethoxy-4-hydroxycinnamoyl)amino-3-octyloxy-4-(β-D-galactopyranosyloxy)-1-methyl-2(1H)-quinolinone] | 43 |  |  |  |  | 
6 | CCCCCCCCOc1c(O[C@H]2O[C@H](CO)[C@@H](O)[C@H](O)[C@@H]2O)c2ccc(NC(=O)/C=C/c3cc(OC)c(O)c(OC)c3)cc2n(C)c1=O [Compound 34, 7-(3,5-dimethoxy-4-hydroxycinnamoyl)amino-3-octyloxy-4-(α-D-mannopyranosyloxy)-1-methyl-2(1H)-quinolinone] | 42 |  |  |  |  | 
7 | CCCCCCCCOc1c(O)c2ccc(NC(=O)/C=C/c3cc(OC)c(O[C@@H]4O[C@H](CO)[C@H](O)[C@H](O)[C@H]4O)c(OC)c3)cc2n(C)c1=O [Compound 27, 7-[3,5-dimethoxy-4-(β-D-galactopyranosyloxy)cinnamoyl]amino-3-octyloxy-4-hydroxy-1-methyl-2(1H)-quinolinone] | 46 |  |  |  |  | 
8 | COc1ccc(/C=C/C(=O)Nc2ccccc2C(=O)O)cc1OC [Tranilast, reference compound] |  |  |  |  |  | inhibition (%) of PCA reaction ([3]; positive control, 100 mg/kg orally): 52%
9 | CCCCCCCCOc1c(O[C@@H]2O[C@H](CO)[C@@H](O)[C@H](O)[C@H]2O)c2ccc(NC(=O)/C=C/c3cc(OC)c(O[C@@H]4O[C@H](CO)[C@@H](O)[C@H](O)[C@H]4O)c(OC)c3)cc2n(C)c1=O [Compound 20, 7-[3,5-dimethoxy-4-(β-D-glucopyranosyloxy)cinnamoyl]amino-3-octyloxy-4-(β-D-glucopyranosyloxy)-1-methyl-2(1H)-quinolinone] | 49 | 57 | 61 | 27 | 38 | 
10 | CCCCCCCCOc1c(O)c2ccc(NC(=O)/C=C/c3cc(OC)c(O[C@@H]4O[C@H](C(=O)O)[C@@H](O)[C@H](O)[C@H]4O)c(OC)c3)cc2n(C)c1=O [Compound 15, 7-[3,5-dimethoxy-4-(β-D-glucuropyranosyloxy)cinnamoyl]amino-3-octyloxy-4-hydroxy-1-methyl-2(1H)-quinolinone] | 42 |  |  |  |  | 
11 | CCCCCCCCOc1c(O[C@@H]2O[C@H](C(=O)O)[C@@H](O)[C@H](O)[C@H]2O)c2ccc(NC(=O)/C=C/c3cc(OC)c(O)c(OC)c3)cc2n(C)c1=O [Compound 16, 7-(3,5-dimethoxy-4-hydroxycinnamoyl)amino-3-octyloxy-4-(β-D-glcuropyranosyloxy)-1-methyl-2(1H)-quinolinone] | 41 | 42 | 51 | 22 | 26 | 
12 | CCCCCCCCOc1c(O[C@@H]2O[C@H](C(=O)O)[C@@H](O)[C@H](O)[C@H]2O)c2ccc(NC(=O)/C=C/c3cc(OC)c(O[C@@H]4O[C@H](C(=O)O)[C@@H](O)[C@H](O)[C@H]4O)c(OC)c3)cc2n(C)c1=O [Compound 14] | 54 | 64 | 73 | 29 | 37 | 
13 | CCCCCCCCOc1c(O[C@@H]2O[C@H](CO)[C@@H](O)[C@H](O)[C@H]2O)c2ccc(NC(=O)/C=C/c3cc(OC)c(O)c(OC)c3)cc2n(C)c1=O [Compound 22, 7-(3,5-dimethoxy-4-hydroxycinnamoyl)amino-3-octyloxy-4-(β-D-glucopyranosyloxy)-1-methyl-2(1H)-quinolinone] | 42 |  |  |  |  | 
14 | CCCCCCCCOc1c(O[C@@H]2O[C@H](CO)[C@H](O)[C@H](O)[C@H]2O)c2ccc(NC(=O)/C=C/c3cc(OC)c(O[C@@H]4O[C@H](CO)[C@H](O)[C@H](O)[C@H]4O)c(OC)c3)cc2n(C)c1=O [Compound 26, 7-[3,5-dimethoxy-4-(β-D-galactopyranosyloxy)cinnamoyl]amino-3-octyloxy-4-(β-D-galactopyranosyloxy)-1-methyl-2(1H)-quinolinone] | 50 | 52 | 63 | 25 | 37 | 
